The values below come from patent US9200009B2, “Polycyclic pyridone derivative having integrase inhibitory activity” (Shionogi & Co., Ltd., priority 2011, dated 2015).

For assay [1], the target named is integrase (Human immunodeficiency virus type 1 group M subtype B, UniProt P04585). Nature of the assay: Integrase inhibitory activity (Experimental Example 1). Conditions: integrase strand transfer ELISA, absorbance OD 405 nm. In kind it is biochemical, HIV. On the procedure:
(1) Preparation of DNA Solution
By the same method as that described in Experimental Example 1 of Patent Document 2, a substrate DNA solution (2 pmol/μl) and a target DNA solution (5 pmol/μl) were prepared. […] Each sequence of a substrate DNA and a target DNA is as described in the same Experimental Example.
(2) Measurement of Inhibition Rate (IC50 Value)
Onto Immobilizer—Streptavidin Plates (manufactured by NUNC) was added 100 μl of a substrate DNA solution (2 pmol/μl). After adsorbing at room temperature for 60 minutes under shaking, it was washed with a phosphate buffer two times.
Then, to each well prepared as described above were added 51 μl of a reaction solution prepared from 12 μl of a buffer (composition: 150 mM MOPS (pH 7.2), 75 mM MnCl2, 50 mM 2-mercaptoethanol, 25% glycerol, 500 μg/ml bovine serum albumin-fraction V) and 39 μl of distilled water. Then, 9 μl of an integrase solution (30 pmol) was added, and the mixture was mixed well. To a well as a negative control (NC) was added 9 μl of a diluting solution (composition: 50 mM Hepes (pH 8.0), 10 mM DTT, 10% Glycerol, 0.5 M NaCl), and this was mixed well using a plate mixer.
After the plate was incubated at 30° C. for 60 minutes, the reaction solution was discarded, followed by washing with 200 μl of a washing buffer (composition: 150 mM MOPS (pH 7.2), 50 mM 2-mercaptoethanol, 25% glycerol, 500 μg/ml bovine serum albumin-fraction V) three times.
Then, to each well were added 53 μl of a reaction solution prepared from 12 μl of a buffer (composition: 150 mM MOPS (pH 7.2), 75 mM MgCl2, 50 mM 2-mercaptoethanol, 25% glycerol, 500 μg/ml bovine serum albumin-fraction V) and 41 μl of distilled water. Further, 6 μl of a solution of a test compound in DMSO was added to each well, and 6 μl of DMSO was added to wells as a positive control (PC) and a negative control (NC), followed by mixing well using a plate mixer. After the plate was incubated at 30° C. for 60 minutes, 1 μl of a target DNA (5 pmol/μl) was added, and this was mixed well using a plate mixer.
After each plate was incubated at 30° C. for 10 minutes, the reaction solution was discarded, followed by washing with a phosphate buffer two times. Then, an anti-digoxigenin antibody labeled with alkaline phosphatase (sheep Fab fragment: manufactured by Boehringer) was diluted 2000-fold with an antibody diluting solution, 100 μl of the diluent was added to bind at 30° C. for 1 hour, and this was washed successively with a phosphate buffer containing 0.05% Tween 20 two times, and a phosphate buffer two times. […] C abs.: Absorbance of well of compound NC abs.: Absorbance of NC PC abs.: Absorbance of PC
For orientation: ELISA stands for enzyme-linked immunosorbent assay.

Assay [2] has as its system HIV virus. Nature of the assay: Anti-HIV activity in MT-4 cells, MTT (Experimental Example 2). Conditions: Human immunodeficiency virus 1, MT4, 96 h, 50% HIV inhibition concentration, 4 days incubation. The assay is classed as cell-based. As for the experimental part: Previously, a series of two-fold dilution on test samples were carried out in a 96-well plate (50 μL/well). Two plates were made for measuring anti-HIV activity and measuring cytotoxicity. For each agent, measurement in duplicate was carried out. An MT-4 cell suspension of 2.5×10^5/mL was dispensed at 100 μL/well onto the 96-well plate containing the test samples. An HIV virus solution was dispensed at 50 μL/well onto the 96-well plate containing the test samples and the cell. To the plate for measuring cytotoxicity, a culture solution was dispensed at 50 μL/well. It was mixed by a plate mixer, and then incubated in a CO2 incubator for 4 days. […] Thirty microliters of a MTT (3-(4,5-dimethylthiazol-2-yl)-2,5-diphenyltetrazolium bromide) solution was dispensed to each well.
A reaction was allowed to occur in a CO2 incubator for 1 hour. From each well, 150 μL of the supernatant was removed such that cells are not sucked. One-hundred and fifty microliters of a cell lysis solution was added thereto, and then it was mixed well by a plate mixer until the whole cells are lysed. The mixed 96-well plates were measured by a microplate reader at two wavelengths, 560 nm/690 nm. Based on the following calculation formula, 50% HIV inhibition concentration (EC50) was calculated. […]
Based on the following calculation formula, selectivity index was calculated. […]

In general, IC50 refers to the concentration that inhibits the measured activity by half. Low values mean greater potency in that assay, high ones weaker potency in that assay. Usually EC50 stands for the concentration that produces a half-maximal response. For `C[C@@H]1CCO[C@H]2Cn3cc(-c4nnc(Cc5ccc(F)cc5F)s4)c(=O)c(O)c3C(=O)N12` [Example 4], in assay [1], the IC50 is 1.3 nM. In assay [2], this molecule returned an EC50 of 1.7 nM. The molecule `C[C@@H]1CCO[C@H]2Cn3cc(-c4ncc(Cc5ccc(F)cc5)s4)c(=O)c(O)c3C(=O)N12` [Example 1] gave a 50% inhibitory concentration (IC50) in assay [1] of 3.9 nM. In assay [1], `C[C@@H]1CCO[C@H]2Cn3cc(-c4ncc(Cc5ccc(F)cc5F)s4)c(=O)c(O)c3C(=O)N12` [Example 2] had an IC50 of 2 nM. In assay [2], this molecule registered an EC50 of 2.8 nM. `C[C@@H]1CCO[C@H]2Cn3cc(-c4nnc(Cc5ccc(F)cc5)s4)c(=O)c(O)c3C(=O)N12` [Example 3] gave an IC50 in assay [1] of 3.8 nM. That is a single-digit nanomolar value.
